# According to patent publication US10442837B2, “Scorpion venom heat-resistant synthetic peptide and applications thereof” (priority 2016, dated 2019):
# Peptide text beside a SMILES is read from it.
# Tests used:
# Kunming mice [1] = test: Acute toxicity test, intraperitoneal injection; format: in vivo; settings: 78.6 mg/kgBW ip
# Kunming mice [2] = test: Acute toxicity test, intraperitoneal injection; format: in vivo
# Description: 1) Main Observation Indicators:
# (2) Minimal lethal dose (MLD): a dose that causes death in individual tested animals;
# (3) The highest dose of nontoxic reaction (highest nontoxic dose): that is, no observed adverse effect level ([…]), i.e. the highest dose under which no injury is found for animals in a certain period of time;
# (4) Minimum toxic reaction dose: minimum dose of toxic reaction in animals: that is the lowest dose of the toxic reaction in animals whose toxic responses are just caused.
# (1) Tested animals: Kunming mice, half male and half female (healthy adult, weight 19-20 g);
# (2) Subjects: SVHRSP: • a. source: BmK scorpion venom extract purchased from Henan Yichang Xinxin Scorpion Factory (May 28, 2012); • b. Lot No: P160418-CQ455216; • c. Content (or specification): 10 mg/piece; • d. Preservation conditions and preparation methods: −20° C. for long-term preservation, 4° C. for preservation within 7-10 d, and redissolved with millipore water when in use.
# (3) Administration Route: respectively ip (intraperitoneal injection) route (the largest volume commonly used in mice ip route administration is 0.1-1.0 ml/20 gBW) the optimal administration doses to the animals (the doses are different, but the administration capacity is identical) are selected according to the route of administration, and 0.2 ml/20 gBW is adopted for the ip administration routes in this experiment.
# According to the approximate lethal dose method, list the possible sequences:
# the possible maximum tolerance dose and the possible minimum lethal dose of the SVHRSP are estimated according to the acute toxicity test results of the former scorpion venom heat-resistant polypeptide on Kunming mice. Then, a dose sequence table containing several doses is designed according to the 50% incremental method:
# The possible lethal dose ranges (115.2, 76.8, 51.2, 34.1 mg/kg) are found from the estimated dose sequence list, where each dose is given to one animal, the minimum lethal dose and the maximum tolerated dose are measured, and then the dose between the two is given to an animal. If the animal under this dose doesn't die, the range between this dose and the minimum lethal dose is the approximate lethal dose range; if the animal under this dose dies, the range between this dose and the maximum tolerance dose is the approximate lethal dose range.
# [3] = system: lithium-pilocarpine epilepsy model rats; test: Lithium-pilocarpine refractory epilepsy chronic model, episodes; format: in vivo, SD rats; settings: 300 mg/kg, n = 9
# Method: (1) Selection and groups of animals that 180 g healthy male SD rats are selected. Lithium-pilocarpine ip (intraperitoneal administration) 300 mg/kg is used to induce temporal lobe epilepsy episodes. After 15 days of acute epilepsy episode, epilepsy rats are randomly divided into a model group and a model administration group. […] The levels of epilepsy are observed and recorded, and graded according to Racine as the evaluation criteria.
smiles,measurement,setting,value
CC(C)C[C@H](NC(=O)[C@@H](NC(=O)[C@@H](N)CCCCN)C(C)C)C(=O)N[C@@H](CC(N)=O)C(=O)NCC(=O)N1CCC[C@H]1C(=O)N[C@@H](CCC(=O)O)C(=O)N[C@@H](CCC(=O)O)C(=O)N[C@@H](CCC(=O)O)C(=O)N[C@@H](C)C(=O)N[C@@H](C)C(=O)N[C@@H](C)C(=O)N1CCC[C@H]1C(=O)N[C@@H](C)C(=O)N[C@@H](CCC(=O)O)C(=O)O [SVHRSP] (H-KVLNGPEEEAAAPAE-OH),Lethal (%),Kunming mice [1],0%
same,Survival (%),Kunming mice [1],100%
same,Lethal (%),Kunming mice [2]; 115.2 mg/kgBW ip,0%
same,Survival (%),Kunming mice [2]; 115.2 mg/kgBW ip,100%
same,Lethal (%),Kunming mice [2]; 172.8 mg/kgBW ip,0%
same,Survival (%),Kunming mice [2]; 172.8 mg/kgBW ip,100%
same,Lethal (%),Kunming mice [2]; 500 mg/kgBW ip,0%
same,Survival (%),Kunming mice [2]; 500 mg/kgBW ip,100%
same,Lethal (%),Kunming mice [2]; 2000 mg/kgBW ip,0%
same,Survival (%),Kunming mice [2]; 2000 mg/kgBW ip,100%
same,Toxic Reaction,Kunming mice [2]; 2000 mg/kgBW ip,no any toxic reaction is observed
same,ratio of medicinal safety and pharmacodynamic activity (2000/0.05),Kunming mice [2]; ip 2000 mg/kg vs 0.05 mg/kg effective dose,"> 40,000 times"
same,"maximum non-toxic dose (highest nontoxic dose, no observed adverse effect level)","Kunming mice [2]; ip, up to 2000 mg/kg·BW",has not reached yet
CCCC(CCC)C(=O)[O-].[Na+] [sodium valproate],Total Episode Averages superimposed ± Standard Deviation,[3]; First day,2.67 ± 0.85
same,Total Episode Averages superimposed ± Standard Deviation,[3]; First eight days,15.11 ± 2.73
same,Total Episode Averages superimposed ± Standard Deviation,[3]; First eleven days,18.89 ± 3.13
same,Total Episode Averages superimposed ± Standard Deviation,[3]; First fifteen days,23.56 ± 3.79
same,Total Episode Averages superimposed ± Standard Deviation,[3]; First five days,11.67 ± 2.24
same,Total Episode Averages superimposed ± Standard Deviation,[3]; First four days,9.56 ± 1.96
same,Total Episode Averages superimposed ± Standard Deviation,[3]; First fourteen days,22.67 ± 3.56
same,Total Episode Averages superimposed ± Standard Deviation,[3]; First nine days,16.33 ± 3.05
same,Total Episode Averages superimposed ± Standard Deviation,[3]; First seven days,13.89 ± 2.45
same,Total Episode Averages superimposed ± Standard Deviation,[3]; First six days,12.67 ± 2.30
same,Total Episode Averages superimposed ± Standard Deviation,[3]; First ten days,17.55 ± 2.91
same,Total Episode Averages superimposed ± Standard Deviation,[3]; First thirteen days,21.78 ± 3.58
same,Total Episode Averages superimposed ± Standard Deviation,[3]; First twelve days,20.56 ± 3.33
same,Total Episode Averages superimposed ± Standard Deviation,[3]; First two days,5.56 ± 1.27
